Measurements as given in PubChem BioAssay AID248 (DTP/NCI, 2004).
Several values for one entry are separate records, joined by “and”; a condition that tells them apart may be missing. Identical values can stand only once. Inconclusive results and toxic doses are left out. Rule as the data show it: active = T/C of 150% or more; inactive = T/C below 125%.

System: L1210 leukemia ip in BDF1 mice, survival T/C
Assay: NCI In Vivo Anticancer Drug Screen. Data for tumor model L1210 Leukemia (intraperitoneal) in B6D2F1 (BDF1) mice
Conditions: endpoint: mean survival time, higher = longer survival
How it was run: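 Tumor was transplanted into mice, which were then dosed with test compound or vehicle alone. Survival was recorded for each group, and the treated figure was expressed relative to the control figure.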

[1] = dose: 100.0 mg/kg/injection, schedule: Q01DX001 (ip), vehicle: saline with Tween-80
[2] = dose: 100.0 mg/kg/injection, schedule: Q01DX009 (ip), vehicle: saline with Tween-80
[3] = dose: 200.0 mg/kg/injection, schedule: Q01DX001 (ip), vehicle: saline with Tween-80
[4] = dose: 200.0 mg/kg/injection, schedule: Q01DX009 (ip), vehicle: saline with Tween-80
[5] = dose: 400.0 mg/kg/injection, schedule: Q01DX001 (ip), vehicle: saline with Tween-80
[6] = dose: 400.0 mg/kg/injection, schedule: Q01DX009 (ip), vehicle: saline with Tween-80
[7] = dose: 100.0 mg/kg/injection, schedule: Q04DX002 (ip), vehicle: saline with Tween-80
[8] = dose: 200.0 mg/kg/injection, schedule: Q04DX002 (ip), vehicle: saline with Tween-80
[9] = dose: 400.0 mg/kg/injection, schedule: Q04DX002 (ip), vehicle: saline with Tween-80
[10] = dose: 100.0 mg/kg/injection, schedule: Q04DX003 (ip), vehicle: saline with Tween-80
[11] = dose: 200.0 mg/kg/injection, schedule: Q04DX003 (ip), vehicle: saline with Tween-80
[12] = dose: 50.0 mg/kg/injection, schedule: Q01DX001 (ip), vehicle: saline
[13] = dose: 100.0 mg/kg/injection, schedule: Q01DX001 (ip), vehicle: saline
[14] = dose: 25.0 mg/kg/injection, schedule: Q04DX003 (ip), vehicle: saline with Tween-80
[15] = dose: 50.0 mg/kg/injection, schedule: Q04DX003 (ip), vehicle: saline with Tween-80
[16] = dose: 200.0 mg/kg/injection, schedule: Q01DX001 (ip), vehicle: saline
[17] = dose: 400.0 mg/kg/injection, schedule: Q01DX001 (ip), vehicle: saline

Measured: T/C

O=Cc1[nH]c(=S)[nH]c(=O)c1Cc1ccc(Br)cc1
inactive: [1] 106 % of control | [2] 94 % of control | [3] 98 % of control | [4] 91 % of control | [5] 98 % of control | [6] 98 % of control

COC(=O)C1/C(=C/c2ccccc2)C(=O)c2ccccc21 (centres undefined)
inactive: [7] 87 % of control | [8] 87 % of control | [9] 94 % of control

CCCCCCCCCCSCCCCCCCCSCCCCCCCCCC
inactive: dose: 100.0 mg/kg/injection, schedule: Q01DX001 (ip), vehicle: Klucel (hydroxypropylcellulose) (HPC) 94 % of control | dose: 200.0 mg/kg/injection, schedule: Q01DX001 (ip), vehicle: Klucel (hydroxypropylcellulose) (HPC) 87 % of control | dose: 400.0 mg/kg/injection, schedule: Q01DX001 (ip), vehicle: Klucel (hydroxypropylcellulose) (HPC) 96 % of control

CCOC(=O)c1ccc(NC(=O)Nc2cccc(O)c2)cc1
inactive: [1] 89 % of control | [2] 95 % of control | [7] 99 % of control and 110 % of control | [10] 95 % of control | [3] 98 % of control | [4] 99 % of control | [8] 99 % of control and 106 % of control | [11] 93 % of control | [5] 94 % of control | [6] 95 % of control | [9] 103 % of control and 104 % of control | dose: 400.0 mg/kg/injection, schedule: Q04DX003 (ip), vehicle: saline with Tween-80 94 % of control

Cc1cc2nnc(C)n2c2ccccc12
inactive: [12] 103 % of control | [13] 103 % of control

Nc1nc(SCc2ccccc2)c2nnn(C3OC(CO)C(O)C3O)c2n1 (centres undefined)
inactive: [1] 101 % of control | [3] 96 % of control | [5] 111 % of control

N/C(=N/N=C/c1ccccn1)N[N+](=O)[O-]
inactive: dose: 12.5 mg/kg/injection, schedule: Q01DX009 (ip), vehicle: saline with Tween-80 105 % of control | dose: 12.5 mg/kg/injection, schedule: Q04DX003 (ip), vehicle: saline with Tween-80 119 % of control | dose: 25.0 mg/kg/injection, schedule: Q01DX009 (ip), vehicle: saline with Tween-80 101 % of control | [14] 105 % of control | [15] 114 % of control

COC1CN(C)C(=Nc2cccc3ccccc23)S1 (centres undefined)
inactive: dose: 100.0 mg/kg/injection, schedule: Q01DX009 (ip), vehicle: other 100 % of control | dose: 100.0 mg/kg/injection, schedule: Q04DX003 (ip), vehicle: other 103 % of control | dose: 200.0 mg/kg/injection, schedule: Q01DX009 (ip), vehicle: other 94 % of control | dose: 200.0 mg/kg/injection, schedule: Q04DX003 (ip), vehicle: other 95 % of control | dose: 400.0 mg/kg/injection, schedule: Q01DX009 (ip), vehicle: other 97 % of control | dose: 400.0 mg/kg/injection, schedule: Q04DX003 (ip), vehicle: other 92 % of control

Oc1c(Br)cc(Br)cc1C=Nc1ccc(I)cc1.Oc1c(Br)cc(Br)cc1C=Nc1ccc(I)cc1.[Co]
inactive: [10] 98 % of control | [11] 92 % of control

O=C(OC(=Nc1ccccc1)N(c1ccccc1)c1ccccc1)c1ccccc1
inactive: [13] 91 % of control | [16] 95 % of control | [17] 94 % of control

CSc1nc(N)cc(NCc2ccccc2)n1
inactive: [1] 93 % of control | [3] 95 % of control | [5] 100 % of control

CCCCCCC(=O)CCCCCC/C=C/CC(O)C(O)C(N)(CO)C(=O)O (centres undefined)
inactive: dose: 0.78 mg/kg/injection, schedule: Q04DX002 (ip), vehicle: saline with Tween-80 104 % of control | dose: 1.56 mg/kg/injection, schedule: Q04DX002 (ip), vehicle: saline with Tween-80 104 % of control | dose: 3.13 mg/kg/injection, schedule: Q04DX002 (ip), vehicle: saline with Tween-80 100 % of control

O=C(Nc1ccccc1)C(Cl)Cl
inactive: [2] 96 % of control | [4] 91 % of control | [6] 96 % of control

COc1ccc(NC(=O)Nc2cc([N+](=O)[O-])ccc2F)cc1
inactive: dose: 100.0 mg/kg/injection, schedule: Q04DX003 (ip), vehicle: Klucel (hydroxypropylcellulose) (HPC) 89 % of control | dose: 200.0 mg/kg/injection, schedule: Q04DX003 (ip), vehicle: Klucel (hydroxypropylcellulose) (HPC) 89 % of control | dose: 400.0 mg/kg/injection, schedule: Q04DX003 (ip), vehicle: Klucel (hydroxypropylcellulose) (HPC) 88 % of control

CC12CC=C3c4ccc(S)cc4CCC3C1CCC2=O (centres undefined)
inactive: [1] 96 % of control | [3] 89 % of control | [5] 89 % of control

CNC(=O)Nc1nnnc2ccccc12
inactive: [14] 92 % of control | [15] 94 % of control | [10] 89 % of control

c1ccc(-c2nc3ccccc3s2)cc1
inactive: dose: 100.0 mg/kg/injection, schedule: Q04DX002 (ip), vehicle: gum acacia 101 % of control | dose: 200.0 mg/kg/injection, schedule: Q04DX002 (ip), vehicle: gum acacia 111 % of control | dose: 400.0 mg/kg/injection, schedule: Q04DX002 (ip), vehicle: gum acacia 86 % of control

O=C1c2cc(Br)ccc2NC1(c1c[nH]c2ccccc12)c1c[nH]c2ccccc12
inactive: [12] 102 % of control | [13] 100 % of control | [16] 96 % of control | [17] 93 % of control

O=C1C=CC(=O)C(SCCCSC2=CC(=O)C(SCCCSC3=CC(=O)C=CC3=O)=CC2=O)=C1
inactive: [13] 92 % of control | [16] 92 % of control | [17] 101 % of control

CC(C)CC(CC(C)C)OB(OC(CC(C)C)CC(C)C)OC(CC(C)C)CC(C)C
inactive: dose: 50.0 mg/kg/injection, schedule: Q01DX001 (ip), vehicle: other 96 % of control | dose: 100.0 mg/kg/injection, schedule: Q01DX001 (ip), vehicle: other 96 % of control | dose: 200.0 mg/kg/injection, schedule: Q01DX001 (ip), vehicle: other 96 % of control | dose: 400.0 mg/kg/injection, schedule: Q01DX001 (ip), vehicle: other 90 % of control

O=NN(Cc1ccccc1)P(=O)(O)Oc1ccccc1
inactive: dose: 4.5 mg/kg/injection, schedule: Q01DX001 (ip), vehicle: saline 100 % of control | dose: 9.0 mg/kg/injection, schedule: Q01DX001 (ip), vehicle: saline 97 % of control | dose: 13.0 mg/kg/injection, schedule: Q01DX001 (ip), vehicle: saline 100 % of control | dose: 26.0 mg/kg/injection, schedule: Q01DX001 (ip), vehicle: saline 97 % of control | dose: 40.0 mg/kg/injection, schedule: Q01DX001 (ip), vehicle: saline 114 % of control | dose: 60.0 mg/kg/injection, schedule: Q01DX001 (ip), vehicle: saline 101 % of control | dose: 93.0 mg/kg/injection, schedule: Q01DX001 (ip), vehicle: saline 97 % of control | dose: 187.0 mg/kg/injection, schedule: Q01DX001 (ip), vehicle: saline 94 % of control | dose: 250.0 mg/kg/injection, schedule: Q01DX001 (ip), vehicle: saline 95 % of control | dose: 375.0 mg/kg/injection, schedule: Q01DX001 (ip), vehicle: saline 92 % of control | dose: 500.0 mg/kg/injection, schedule: Q01DX001 (ip), vehicle: saline 100 % of control | dose: 750.0 mg/kg/injection, schedule: Q01DX001 (ip), vehicle: saline 95 % of control
